Results reported in the kinase profiling compilation of Christmann-Franck et al. (2016).

Key:
CLK2 (human) = CLK2 (human) (UniProt P49760); assay: Caliper, Mobility shift assay off-chip
FRK (human) = FRK (human) (UniProt P42685); assay: Caliper, Mobility shift assay off-chip
MST1R (human) = MST1R (human) (UniProt Q04912); assay: Caliper, Mobility shift assay off-chip
TXK (human) = TXK (human) (UniProt P42681); assay: Caliper, Mobility shift assay off-chip
ALK (human) = ALK (human) (UniProt Q9UM73); assay: Caliper, Mobility shift assay off-chip
CDK1 (human) = CDK1 (human) (UniProt P06493); assay: Caliper, Mobility shift assay off-chip
RET (human) = RET (human) (UniProt P07949); assay: Caliper, Mobility shift assay off-chip
MET (human) [1] = target: MET (human) (UniProt P08581); assay: TR FRET
MET (human) [2] = target: MET (human) (UniProt P08581); assay: Caliper, Mobility shift assay off-chip

MST1R (human), sequence (Q04912 whole entry, looked up): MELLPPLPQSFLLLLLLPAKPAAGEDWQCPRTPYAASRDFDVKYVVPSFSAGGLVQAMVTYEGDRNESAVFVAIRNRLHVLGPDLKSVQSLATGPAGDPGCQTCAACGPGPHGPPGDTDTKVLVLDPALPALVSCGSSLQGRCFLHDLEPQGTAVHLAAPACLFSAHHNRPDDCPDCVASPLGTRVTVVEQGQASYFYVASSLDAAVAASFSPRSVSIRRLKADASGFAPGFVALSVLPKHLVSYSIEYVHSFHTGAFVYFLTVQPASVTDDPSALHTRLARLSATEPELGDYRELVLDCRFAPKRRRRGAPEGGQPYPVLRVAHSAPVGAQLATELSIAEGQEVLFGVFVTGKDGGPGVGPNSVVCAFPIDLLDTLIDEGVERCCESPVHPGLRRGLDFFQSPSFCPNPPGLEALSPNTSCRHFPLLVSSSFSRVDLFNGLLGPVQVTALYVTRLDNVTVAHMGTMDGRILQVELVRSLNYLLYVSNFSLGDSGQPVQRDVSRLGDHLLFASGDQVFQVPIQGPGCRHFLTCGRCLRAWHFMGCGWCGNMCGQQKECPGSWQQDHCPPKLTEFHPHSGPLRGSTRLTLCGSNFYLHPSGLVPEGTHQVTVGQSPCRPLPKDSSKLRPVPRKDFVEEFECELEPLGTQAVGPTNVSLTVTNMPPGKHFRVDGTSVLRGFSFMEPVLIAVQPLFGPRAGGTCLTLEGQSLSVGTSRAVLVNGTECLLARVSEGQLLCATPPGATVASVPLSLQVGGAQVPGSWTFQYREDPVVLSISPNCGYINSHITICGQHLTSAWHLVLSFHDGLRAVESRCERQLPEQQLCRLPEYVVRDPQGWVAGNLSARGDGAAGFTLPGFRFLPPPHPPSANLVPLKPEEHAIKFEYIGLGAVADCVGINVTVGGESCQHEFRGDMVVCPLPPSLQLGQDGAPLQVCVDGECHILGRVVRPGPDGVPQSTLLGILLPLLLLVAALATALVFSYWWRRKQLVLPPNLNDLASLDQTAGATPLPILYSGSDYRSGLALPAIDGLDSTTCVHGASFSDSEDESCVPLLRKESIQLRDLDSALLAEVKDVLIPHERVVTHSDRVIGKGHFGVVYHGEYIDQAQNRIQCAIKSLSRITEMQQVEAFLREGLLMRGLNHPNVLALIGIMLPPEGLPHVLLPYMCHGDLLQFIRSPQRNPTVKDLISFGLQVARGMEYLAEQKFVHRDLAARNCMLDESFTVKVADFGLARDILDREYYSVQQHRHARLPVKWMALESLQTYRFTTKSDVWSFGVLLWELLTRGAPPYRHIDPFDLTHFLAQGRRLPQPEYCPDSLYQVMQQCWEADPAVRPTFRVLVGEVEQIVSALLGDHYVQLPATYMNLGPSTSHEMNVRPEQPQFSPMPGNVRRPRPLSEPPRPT
CLK2 (human), sequence (P49760 whole entry, looked up): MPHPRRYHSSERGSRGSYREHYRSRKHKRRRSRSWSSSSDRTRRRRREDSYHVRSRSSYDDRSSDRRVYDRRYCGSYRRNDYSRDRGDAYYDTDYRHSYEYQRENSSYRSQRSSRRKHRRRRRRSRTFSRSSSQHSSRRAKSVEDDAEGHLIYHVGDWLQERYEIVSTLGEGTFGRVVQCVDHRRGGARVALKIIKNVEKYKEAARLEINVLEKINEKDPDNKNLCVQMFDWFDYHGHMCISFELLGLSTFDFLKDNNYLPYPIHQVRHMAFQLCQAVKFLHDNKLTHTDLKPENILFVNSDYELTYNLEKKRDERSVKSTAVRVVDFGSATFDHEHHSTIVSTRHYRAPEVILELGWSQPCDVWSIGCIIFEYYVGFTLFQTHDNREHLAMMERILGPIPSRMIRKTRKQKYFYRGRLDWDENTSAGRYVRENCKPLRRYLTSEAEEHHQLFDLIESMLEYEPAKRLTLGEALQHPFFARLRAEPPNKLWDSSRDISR
CDK1 (human), sequence (P06493 whole entry, looked up): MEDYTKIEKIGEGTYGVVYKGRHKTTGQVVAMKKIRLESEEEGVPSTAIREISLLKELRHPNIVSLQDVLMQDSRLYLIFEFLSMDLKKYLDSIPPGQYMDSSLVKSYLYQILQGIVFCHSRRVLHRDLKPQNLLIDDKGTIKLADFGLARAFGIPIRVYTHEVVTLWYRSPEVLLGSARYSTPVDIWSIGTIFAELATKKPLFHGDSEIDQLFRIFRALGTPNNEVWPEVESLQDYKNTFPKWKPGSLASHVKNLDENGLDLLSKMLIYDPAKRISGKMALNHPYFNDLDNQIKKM
TXK (human), sequence (P42681 whole entry, looked up): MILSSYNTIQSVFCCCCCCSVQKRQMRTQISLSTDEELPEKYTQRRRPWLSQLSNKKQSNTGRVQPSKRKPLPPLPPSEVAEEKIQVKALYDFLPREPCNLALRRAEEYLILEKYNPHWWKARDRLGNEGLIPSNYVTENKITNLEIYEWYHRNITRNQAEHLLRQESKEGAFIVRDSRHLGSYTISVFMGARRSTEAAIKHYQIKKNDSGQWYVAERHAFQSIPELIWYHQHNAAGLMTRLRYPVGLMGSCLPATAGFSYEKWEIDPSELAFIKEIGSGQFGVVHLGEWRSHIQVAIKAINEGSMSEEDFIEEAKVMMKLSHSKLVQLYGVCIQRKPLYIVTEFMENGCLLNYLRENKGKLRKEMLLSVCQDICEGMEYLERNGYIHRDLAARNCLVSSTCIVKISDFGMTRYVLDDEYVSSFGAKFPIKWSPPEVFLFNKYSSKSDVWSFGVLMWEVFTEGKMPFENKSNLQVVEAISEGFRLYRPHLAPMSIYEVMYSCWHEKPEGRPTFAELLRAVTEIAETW
ALK (human), sequence (Q9UM73 whole entry, looked up): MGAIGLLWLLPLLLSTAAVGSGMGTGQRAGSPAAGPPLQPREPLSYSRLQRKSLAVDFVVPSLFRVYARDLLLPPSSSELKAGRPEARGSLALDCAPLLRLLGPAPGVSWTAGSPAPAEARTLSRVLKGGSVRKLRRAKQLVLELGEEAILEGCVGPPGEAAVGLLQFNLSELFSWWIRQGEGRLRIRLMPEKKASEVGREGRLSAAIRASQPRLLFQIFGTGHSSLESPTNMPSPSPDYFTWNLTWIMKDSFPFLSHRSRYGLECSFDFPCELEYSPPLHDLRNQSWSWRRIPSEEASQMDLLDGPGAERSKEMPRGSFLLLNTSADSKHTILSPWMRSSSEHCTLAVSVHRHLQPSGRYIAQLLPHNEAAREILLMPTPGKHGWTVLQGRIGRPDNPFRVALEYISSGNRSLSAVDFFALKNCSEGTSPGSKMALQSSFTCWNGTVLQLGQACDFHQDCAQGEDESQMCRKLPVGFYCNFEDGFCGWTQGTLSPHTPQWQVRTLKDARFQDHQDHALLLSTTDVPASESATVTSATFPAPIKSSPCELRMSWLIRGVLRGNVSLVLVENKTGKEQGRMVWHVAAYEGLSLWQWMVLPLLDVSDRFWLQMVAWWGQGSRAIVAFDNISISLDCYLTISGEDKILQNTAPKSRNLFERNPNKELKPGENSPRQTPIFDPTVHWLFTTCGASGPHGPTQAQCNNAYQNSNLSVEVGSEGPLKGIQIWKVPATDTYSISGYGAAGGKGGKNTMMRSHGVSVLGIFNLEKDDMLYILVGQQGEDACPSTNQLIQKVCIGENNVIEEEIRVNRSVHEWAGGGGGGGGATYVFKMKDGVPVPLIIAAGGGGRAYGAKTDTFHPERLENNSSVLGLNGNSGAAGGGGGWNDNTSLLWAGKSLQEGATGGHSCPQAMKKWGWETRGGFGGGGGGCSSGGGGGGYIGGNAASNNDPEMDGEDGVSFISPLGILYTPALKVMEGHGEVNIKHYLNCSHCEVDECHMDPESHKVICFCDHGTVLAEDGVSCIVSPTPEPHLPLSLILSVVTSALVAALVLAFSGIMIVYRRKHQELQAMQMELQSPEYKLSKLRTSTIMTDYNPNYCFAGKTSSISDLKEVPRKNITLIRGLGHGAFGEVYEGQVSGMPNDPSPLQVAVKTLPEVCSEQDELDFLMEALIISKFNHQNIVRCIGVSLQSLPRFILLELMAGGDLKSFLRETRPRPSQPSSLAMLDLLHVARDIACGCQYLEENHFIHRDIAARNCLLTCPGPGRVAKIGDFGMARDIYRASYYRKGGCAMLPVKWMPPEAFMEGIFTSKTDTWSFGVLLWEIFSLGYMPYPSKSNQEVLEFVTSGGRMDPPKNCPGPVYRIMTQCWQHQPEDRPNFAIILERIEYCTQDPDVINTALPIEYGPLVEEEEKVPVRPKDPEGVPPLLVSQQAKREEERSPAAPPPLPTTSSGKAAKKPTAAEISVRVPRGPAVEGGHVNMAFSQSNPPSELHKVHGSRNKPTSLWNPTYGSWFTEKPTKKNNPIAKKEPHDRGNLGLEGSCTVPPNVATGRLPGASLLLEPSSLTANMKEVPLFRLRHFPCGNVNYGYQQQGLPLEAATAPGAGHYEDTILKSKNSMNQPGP
FRK (human), sequence (P42685 whole entry, looked up): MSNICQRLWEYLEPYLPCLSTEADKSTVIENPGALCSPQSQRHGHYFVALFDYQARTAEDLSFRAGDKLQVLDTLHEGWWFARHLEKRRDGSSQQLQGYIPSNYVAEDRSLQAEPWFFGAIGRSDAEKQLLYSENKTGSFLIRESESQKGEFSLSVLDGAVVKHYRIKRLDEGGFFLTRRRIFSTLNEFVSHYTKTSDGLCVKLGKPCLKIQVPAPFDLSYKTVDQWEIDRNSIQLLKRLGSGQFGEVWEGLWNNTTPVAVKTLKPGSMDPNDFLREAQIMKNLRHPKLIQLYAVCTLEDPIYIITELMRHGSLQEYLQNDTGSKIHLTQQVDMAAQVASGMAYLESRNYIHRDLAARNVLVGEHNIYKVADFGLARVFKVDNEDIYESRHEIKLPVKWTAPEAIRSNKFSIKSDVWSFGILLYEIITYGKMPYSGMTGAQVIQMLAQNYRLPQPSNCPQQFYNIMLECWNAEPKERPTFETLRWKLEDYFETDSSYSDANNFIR

SMILES: CN(c1ccc2ccc3ncc(-c4cnn(C)c4)cc3c(=O)c2c1)S(=O)(=O)NCc1ccccn1
- inhibition (CLK2 (human); compound 0.1 µM): 3.2%
- inhibition (CLK2 (human); compound 1.0 µM): 16.8%
- inhibition (FRK (human); compound 0.1 µM): 1%
- inhibition (FRK (human); compound 1.0 µM): 8%
- inhibition (MST1R (human); compound 0.1 µM): 23.8%
- inhibition (MST1R (human); compound 1.0 µM): 78.2%
- inhibition (TXK (human); compound 0.1 µM): 0.6%
- inhibition (TXK (human); compound 1.0 µM): 19%
- inhibition (ALK (human); compound 0.1 µM): -0.1%
- inhibition (ALK (human); compound 1.0 µM): 12.2%
- inhibition (CDK1 (human); compound 0.1 µM): 1.3%
- inhibition (CDK1 (human); compound 1.0 µM): 4.7%
- inhibition (RET (human); compound 0.1 µM): 7.4%
- inhibition (RET (human); compound 1.0 µM): 44.1%

SMILES: O=C(CCc1ccc2ccc3ncc(C4CCNCC4)cc3c(=O)c2c1)NCc1ccccn1
- IC50 (MET (human) [1]): 85 nM
- inhibition (CLK2 (human); compound 0.1 µM): 3.4%
- inhibition (CLK2 (human); compound 1.0 µM): 4.1%
- inhibition (FRK (human); compound 0.1 µM): 7.1%
- inhibition (FRK (human); compound 1.0 µM): 6.2%
- inhibition (MET (human) [2]; compound 0.1 µM): 74.1%
- inhibition (MET (human) [2]; compound 1.0 µM): 95.7%
- inhibition (MST1R (human); compound 0.1 µM): -3.6%
- inhibition (MST1R (human); compound 1.0 µM): 20.5%
- inhibition (TXK (human); compound 0.1 µM): -5.1%
- inhibition (TXK (human); compound 1.0 µM): -9.7%
- inhibition (ALK (human); compound 0.1 µM): 6.9%
- inhibition (ALK (human); compound 1.0 µM): -9.5%
- inhibition (CDK1 (human); compound 0.1 µM): -3.9%
- inhibition (CDK1 (human); compound 1.0 µM): 1.2%
- inhibition (RET (human); compound 0.1 µM): 1.9%
- inhibition (RET (human); compound 1.0 µM): 2.8%
